The values below are quoted from earlier work in patent publication US20100221818A1, “Device for the extemporaneous preparation of active preparations” (ALAXIA, priority 2009, published 2010).

For the data set the following is noted: in the absence of peroxidase and/or of hydrogen peroxide.

SMILES strings stand for the structures.

With `N#CSO` [hypothiocyanite], the half-life entry is “approximately 24 hours”.
